Biological target: T1, human CD73 (Homo sapiens, UniProt P21589)
T1 sequence (P21589 27-549): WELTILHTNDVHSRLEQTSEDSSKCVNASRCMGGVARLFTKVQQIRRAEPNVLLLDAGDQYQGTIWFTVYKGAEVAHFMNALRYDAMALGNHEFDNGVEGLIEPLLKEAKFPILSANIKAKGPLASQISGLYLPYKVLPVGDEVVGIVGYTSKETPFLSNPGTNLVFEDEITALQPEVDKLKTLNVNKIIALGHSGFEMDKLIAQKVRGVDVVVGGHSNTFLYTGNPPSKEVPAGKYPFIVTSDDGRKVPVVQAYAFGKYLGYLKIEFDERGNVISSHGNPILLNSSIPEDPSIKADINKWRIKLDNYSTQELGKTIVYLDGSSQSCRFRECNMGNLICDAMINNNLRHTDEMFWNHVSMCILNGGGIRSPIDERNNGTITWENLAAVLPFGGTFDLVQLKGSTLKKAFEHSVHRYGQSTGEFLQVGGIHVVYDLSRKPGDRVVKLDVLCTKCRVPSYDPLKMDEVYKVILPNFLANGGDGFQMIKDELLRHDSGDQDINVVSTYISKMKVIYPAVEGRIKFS
Assay: Inhibition of Ecto-5′-nucleotidase (CD73) activity in CHO-CD73 cells, phosphate release from AMP
Format: cell-based
Settings: CHO-K1 cells stably transfected with human CD73; 25 μM AMP; 50 minutes, 37° C.; read-out: Potency: CD73 IC50

| Structure (SMILES) | IC50 [nM] |
| --- | --- |
| CN(C(=O)Cn1nccc1-c1cc(Cl)c2nnn(-c3ccc4cn[nH]c4c3)c2c1)c1ccccc1 [Example 187] | > 1000 |
| N#Cc1ccc(Cn2nccc2-c2cc(Cl)c3nnn(-c4ccc5[nH]c(=O)[nH]c5c4)c3c2)cc1 [Example 188] | 100 to 1000 |
| O=c1[nH]c2ccc(-n3nnc4cnc(-c5ccnn5Cc5ccc(F)cn5)cc43)cc2[nH]1 [Example 189] | 100 to 1000 |
| O=c1[nH]c2ccc(-n3ncc4ncc(-c5ccnn5Cc5ccc(Cl)cc5Cl)cc43)cc2[nH]1 [Example 190] | 100 to 1000 |
| O=c1[nH]c2ccc(-n3nnc4c(F)cc(-c5ccnn5Cc5ccc(Cl)cc5F)cc43)cc2[nH]1 [Example 191] | 100 to 1000 |
| O=c1[nH]c2ccc(-n3nnc4c(F)cc(-c5ccnn5Cc5ccc(Cl)c(F)c5)cc43)cc2[nH]1 [Example 192] | 100 to 1000 |
| O=c1[nH]c2ccc(-n3nnc4cnc(-c5ccnn5Cc5ccc(Cl)cc5F)cc43)cc2[nH]1 [Example 193] | 100 to 1000 |
| O=c1[nH]c2ccc(-n3nnc4cnc(-c5ccnn5Cc5ccc(Cl)c(F)c5)cc43)cc2[nH]1 [Example 194] | 100 to 1000 |
| O=c1[nH]c2ccc(-n3nnc4c(F)cc(-c5ccnn5Cc5ccc6cn[nH]c6c5)cc43)cc2[nH]1 [Example 195] | 100 to 1000 |
| O=c1[nH]c2ccc(-n3nnc4cnc(-c5ccnn5-c5cccc(F)c5)cc43)cc2[nH]1 [Example 196] | > 1000 |
| N#Cc1cccc(-n2nccc2-c2cc3c(cn2)nnn3-c2ccc3[nH]c(=O)[nH]c3c2)c1 [Example 197] | > 1000 |
| N#Cc1cccc(-n2nccc2-c2cc(F)c3nnn(-c4ccc5[nH]c(=O)[nH]c5c4)c3c2)c1 [Example 198] | > 1000 |
| O=c1[nH]c2ccc(-n3nnc4c(Cl)cc(-c5ccnn5Cc5ccc(F)cn5)cc43)cc2[nH]1 [Example 200] | 100 to 1000 |
| O=c1[nH]c2ccc(-n3nnc4c(F)cc(-c5ccnn5Cc5ccccn5)cc43)cc2[nH]1 [Example 201] | > 1000 |
| O=c1[nH]c2ccc(-n3nnc4c(F)cc(-c5ccnn5CCOc5ccccc5)cc43)cc2[nH]1 [Example 202] | > 1000 |
| O=c1[nH]c2ccc(-n3nnc4ccc(-c5ccnn5Cc5ccc(F)cn5)cc43)cc2[nH]1 [Example 203] | 100 to 1000 |
| N#Cc1ccc(Cn2nccc2-c2ccc3nnn(-c4ccc5[nH]c(=O)[nH]c5c4)c3c2)nc1 [Example 204] | 100 to 1000 |
| O=c1[nH]c2ccc(-n3nnc4c(F)cc(-c5ccnn5CCc5ccc(Cl)cc5)cc43)cc2[nH]1 [Example 205] | > 1000 |
| O=c1[nH]c2ccc(-n3nnc4c(F)cc(-c5ccnn5Cc5cccnn5)cc43)cc2[nH]1 [Example 206] | > 1000 |
| Cc1ccc(Cn2nccc2-c2cc(Cl)c3nnn(-c4ccc5[nH]c(=O)[nH]c5c4)c3c2)cc1F [Example 207] | 100 to 1000 |
| Cc1cc(F)ccc1Cn1nccc1-c1cc(Cl)c2nnn(-c3ccc4[nH]c(=O)[nH]c4c3)c2c1 [Example 208] | 100 to 1000 |
| O=c1[nH]c2ccc(-n3nnc4c(F)cc(-c5ccnn5Cc5ncccn5)cc43)cc2[nH]1 [Example 209] | > 1000 |

Second part, the molecule after the results:

| IC50 [nM] | Structure (SMILES) |
| --- | --- |
| 100 to 1000 | CS(=O)(=O)c1cc(Cl)ccc1Cn1nccc1-c1cc(F)c2nnn(-c3ccc4[nH]c(=O)[nH]c4c3)c2c1 [Example 210] |
| 100 to 1000 | N#Cc1ccc(Cn2nccc2-c2cc(F)c3nnn(-c4ccc5[nH]c(=O)[nH]c5c4)c3c2)c(C#N)c1 [Example 211] |
| > 1000 | O=c1[nH]c2ccc(-n3nnc4c(F)cc(-c5ccnn5Cc5ccncn5)cc43)cc2[nH]1 [Example 212] |
| > 1000 | O=c1[nH]c2ccc(-n3nnc4c(Cl)cc(-c5ccnn5-c5cccc6cccnc56)cc43)cc2[nH]1 [Example 213] |
| > 1000 | N#Cc1ccccc1Cn1nccc1-c1cc(F)c2nnn(-c3ccc4[nH]c(=O)[nH]c4c3)c2c1 [Example 214] |
| > 1000 | O=c1[nH]c2ccc(-n3nnc4c(F)cc(-c5ccnn5CCc5cccc(Cl)c5)cc43)cc2[nH]1 [Example 215] |
| > 1000 | Cc1cccc(-n2nccc2-c2cc(F)c3nnn(-c4ccc5[nH]c(=O)[nH]c5c4)c3c2)c1 [Example 216] |
| 100 to 1000 | Cc1cccc(-n2nccc2-c2cc(Cl)c3nnn(-c4ccc5[nH]c(=O)[nH]c5c4)c3c2)c1 [Example 217] |
| 100 to 1000 | N#Cc1ccc(Cn2nccc2-c2cnc3c(N)nn(-c4ccc5cn[nH]c5c4)c3c2)cc1 [Example 218] |
| 100 to 1000 | N#Cc1ccc(Cn2nccc2-c2cnc3c(N)nn(-c4ccc5[nH]c(=O)[nH]c5c4)c3c2)cc1 [Example 219] |
| > 1000 | COCc1ccc(Cn2nccc2-c2cc(F)c3nnn(-c4ccc5[nH]c(=O)[nH]c5c4)c3c2)cc1 [Example 220] |
| > 1000 | O=c1[nH]c2ccc(-n3nnc4c(F)cc(-c5ccnn5CCc5ccccc5Cl)cc43)cc2[nH]1 [Example 221] |
| 100 to 1000 | O=c1[nH]c2ccc(-n3nnc4c(Cl)cc(-c5ccnn5-c5cccc(C(F)(F)F)c5)cc43)cc2[nH]1 [Example 222] |
| 100 to 1000 | O=c1[nH]c2ccc(-n3nnc4c(F)cc(-c5ccnn5Cc5ccc6[nH]ncc6c5)cc43)cc2[nH]1 [Example 223] |
| < 100 | Cc1ccc(Cn2nccc2-c2cc(Cl)c3nnn(-c4ccc5[nH]c(=O)[nH]c5c4)c3c2)c(F)c1 [Example 224] |
| 100 to 1000 | Cc1cc(Cl)cnc1Cn1nccc1-c1cc(Cl)c2nnn(-c3ccc4[nH]c(=O)[nH]c4c3)c2c1 [Example 225] |
| 100 to 1000 | Cc1cc(C)cc(-n2nccc2-c2cc(F)c3nnn(-c4ccc5[nH]c(=O)[nH]c5c4)c3c2)c1 [Example 226] |
| 100 to 1000 | O=c1[nH]c2ccc(-n3nnc4c(F)cc(-c5ccnn5-c5cc(Cl)cc(Cl)c5)cc43)cc2[nH]1 [Example 227] |
| < 100 | N#Cc1ccc(Cn2nccc2-c2cc(Cl)c3nnn(-c4ccc5[nH]c(=O)[nH]c5c4)c3c2)c(F)c1 [Example 228] |
| > 1000 | O=c1[nH]c2ccc(-n3nnc4c(F)cc(-c5ccnn5Cc5cccc6c5OC(F)(F)O6)cc43)cc2[nH]1 [Example 229] |
| 100 to 1000 | O=c1[nH]c2ccc(-n3nnc4c(Cl)cc(-c5ccnn5Cc5ccncc5Cl)cc43)cc2[nH]1 [Example 230] |
| 100 to 1000 | O=c1[nH]c2ccc(-n3nnc4c(F)cc(-c5ccnn5Cc5ccc(Cl)cc5)cc43)cc2[nH]1 [Example 231] |
| 100 to 1000 | N#Cc1ccc(Cn2nccc2-c2cc(F)c3nnn(-c4ccc5[nH]c(=O)[nH]c5c4)c3c2)c(N2CCCC2=O)c1 [Example 232] |
| > 1000 | O=c1[nH]c2ccc(-n3nnc4c(F)cc(-c5ccnn5Cc5ccc6c(c5)OC(F)(F)O6)cc43)cc2[nH]1 [Example 233] |
| 100 to 1000 | Cc1ccc(Cn2nccc2-c2cc(Cl)c3nnn(-c4ccc5[nH]c(=O)[nH]c5c4)c3c2)c(Cl)c1 [Example 234] |
| < 100 | N#Cc1ccc(Cn2nccc2-c2cc(F)c3nnn(-c4ccc5[nH]c(=O)[nH]c5c4)c3c2)c(Cl)c1 [Example 235] |
| > 1000 | COc1cc(F)ccc1Cn1nccc1-c1cc(F)c2nnn(-c3ccc4[nH]c(=O)[nH]c4c3)c2c1 [Example 236] |
| > 1000 | COc1cc(F)ccc1Cn1nccc1-c1cc2c(cn1)nnn2-c1ccc2[nH]c(=O)[nH]c2c1 [Example 237] |
| 100 to 1000 | O=c1[nH]c2ccc(-n3nnc4c(Cl)cc(-c5ccnn5Cc5ccncc5F)cc43)cc2[nH]1 [Example 238] |
| 100 to 1000 | N#Cc1ccc(Cn2nccc2-c2cc(F)c3nnn(-c4ccc5[nH]c(=O)[nH]c5c4)c3c2)c(F)c1 [Example 239] |

— patent publication US11931343B2 (ARCUS BIOSCIENCES, INC., priority 2018, dated 2024)
